A short description of series [1]: Single-dose pharmacokinetics of EE and LN. It is filed as in vivo, human. The following applies: for Tmax: single oral Microgynon 30 alone, median (range), n = 19.
For series [2] the following is noted: cited from earlier work.
For series [3] the following is noted: tofacitinib 30 mg twice daily; cited from earlier work.
Where [4] appears, read: female, human, plasma, oral, adjusted geometric mean, Reference (Microgynon 30 alone).
The mark [5] stands for this setting: tofacitinib 30 mg twice daily vs Microgynon 30 alone.
Setting [6] is: Microgynon 30 + tofacitinib / Microgynon 30 alone.

Turning to `C#C[C@]1(O)CC[C@H]2[C@@H]3CCc4cc(O)ccc4[C@H]3CC[C@@]21C` [Ethinylestradiol, ethinylestradiol], the area under the curve AUC(0-inf) in series [1] (setting [4]) was 0.716 ng·h/mL. Also, the Tmax in series [1] is 1.5 (1.0–2.1) h. Further, in series [1] (setting [5]), the “Decrease of maximal plasma concentration when coadministered with tofacitinib” value was 10.4% and the “Increase of AUC∞ in the presence of tofacitinib” value came out at 6.6%.
Regarding `C#C[C@]1(O)CC[C@H]2[C@@H]3CCC4=CC(=O)CC[C@@H]4[C@H]3CC[C@@]21CC` [Levonorgestrel, levonorgestrel], in series [1] (setting [6]), the “Ratio (Test/Reference) of adjusted geometric means, AUClast” value was found to be 104.60%; the “Ratio (Test/Reference) of adjusted geometric means, AUC∞” value was 100.87%; the “Ratio (Test/Reference) of adjusted geometric means, Cmax” value amounted to 112.19%. In addition, in series [1] (female, human, plasma, oral, AUClast, adjusted geometric mean, Reference (Microgynon 30 alone)), the exposure AUC(0-t) is 35 ng·h/mL. Also, the area under the curve AUC(0-inf) in series [1] (setting [4]) is 44.6 ng·h/mL. Moreover, in series [1] (female, human, plasma, oral, Cmax, adjusted geometric mean, Reference (Microgynon 30 alone)), the Cmax was determined as 3.78 ng/mL. Further, the Tmax in series [1] is 1.0 (1.0–2.0) h. Besides, in series [1] (setting [5]), the “Increase of AUC∞ in the presence of tofacitinib” value came to 0.9% and the “Increase of maximal plasma concentration when coadministered with tofacitinib” value was 12.2%.
For the compound `C[C@@H]1CCN(C(=O)CC#N)C[C@@H]1N(C)c1ncnc2[nH]ccc12` [Tofacitinib], the “Effect on the pharmacokinetics of EE and LN” value in series [1] (tofacitinib 30 mg twice daily for 11 days, healthy women) is given as “no clinically relevant net inhibitory or inductive effect”. Moreover, in series [2], the “Nonrenal share of clearance” value is given as 70%, the “Renally excreted share of clearance” value is reported as 30% and the “Share of metabolism by CYP3A4” value was “approximately 55%”.
On to `Cc1ncc2n1-c1ccc(Cl)cc1C(c1ccccc1F)=NC2` [midazolam], for which, in series [3], the “Change in Cmax when coadministered with tofacitinib” value is listed as “no change” and the “Change in total exposure (AUC∞) when coadministered with tofacitinib” value was “no change”.

In general, AUC(0-inf) refers to total exposure, with the tail of the curve extrapolated. A high value points to high exposure. As usually defined, the AUC(0-t) is exposure summed from dosing to a finite time, without extrapolation to infinity. A high value points to high exposure. In general, Cmax refers to the peak of the concentration-time curve.
